# Data reported in PubChem BioAssay (NCI).
#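 96-well plates; 48 h exposure; 5 concentrations. Endpoints by linear interpolation between flanking doses. Not reached: highest tested concentration assigned. Definition used: TGI = concentration required for complete inhibition of growth.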 Where a SMILES comes first, the peptide text is derived from it. The star is where a group is joined. Cbz = O=C(OCc1ccccc1)*
# Assays:
# Assay in all cases: NCI anticancer screen, dose series, 48 h
# SF-539 CNS = tested on: SF-539 CNS
# EKVX NSCLC = tested on: EKVX NSCLC
# MALME-3M melanoma = tested on: MALME-3M melanoma
# SF-295 CNS = tested on: SF-295 CNS
# NCI-H460 lung = tested on: NCI-H460 lung
# OVCAR-3 ovarian = tested on: OVCAR-3 ovarian
# CAKI-1 renal = tested on: CAKI-1 renal
# M14 melanoma = tested on: M14 melanoma
# NCI-H226 lung = tested on: NCI-H226 lung
# OVCAR-8 ovarian = tested on: OVCAR-8 ovarian
# HS 578T breast = tested on: HS 578T breast
# MCF7 breast = tested on: MCF7 breast
# UO-31 renal = tested on: UO-31 renal
# HT29 colon = tested on: HT29 colon
# KM12 colon = tested on: KM12 colon
# TK-10 renal = tested on: TK-10 renal
# K-562 leukemia = tested on: K-562 leukemia
# ACHN renal = tested on: ACHN renal
# UACC-62 melanoma = tested on: UACC-62 melanoma
# DU-145 prostate = tested on: DU-145 prostate
# HL-60(TB) leukemia = tested on: HL-60(TB) leukemia
# SR leukemia = tested on: SR leukemia
# SN12C renal = tested on: SN12C renal
# IGROV1 ovarian = tested on: IGROV1 ovarian
# T-47D breast = tested on: T-47D breast
# RXF 393 renal = tested on: RXF 393 renal
# A498 renal = tested on: A498 renal
# SW-620 colon = tested on: SW-620 colon
# HCC-2998 colon = tested on: HCC-2998 colon
# SK-MEL-28 melanoma = tested on: SK-MEL-28 melanoma
# LOX IMVI melanoma = tested on: LOX IMVI melanoma
# SK-OV-3 ovarian = tested on: SK-OV-3 ovarian
# SF-268 CNS = tested on: SF-268 CNS
# HCT-15 colon = tested on: HCT-15 colon
# OVCAR-4 ovarian = tested on: OVCAR-4 ovarian
# NCI-H23 lung = tested on: NCI-H23 lung
# HOP-62 NSCLC = tested on: HOP-62 NSCLC
# HOP-92 NSCLC = tested on: HOP-92 NSCLC
# COLO 205 colon = tested on: COLO 205 colon
# BT-549 breast = tested on: BT-549 breast
# MOLT-4 leukemia = tested on: MOLT-4 leukemia
# MDA-MB-231 breast = tested on: MDA-MB-231 breast
# PC-3 prostate = tested on: PC-3 prostate
# SK-MEL-5 melanoma = tested on: SK-MEL-5 melanoma
# MDA-N = tested on: MDA-N
# RPMI-8226 leukemia = tested on: RPMI-8226 leukemia
# NCI/ADR-RES ovarian = tested on: NCI/ADR-RES ovarian
# OVCAR-5 ovarian = tested on: OVCAR-5 ovarian
# SNB-19 CNS = tested on: SNB-19 CNS
# HCT-116 colon = tested on: HCT-116 colon
# NCI-H522 lung = tested on: NCI-H522 lung
# MDA-MB-435 = tested on: MDA-MB-435
# U251 CNS = tested on: U251 CNS
# 786-0 renal = tested on: 786-0 renal
# A549 NSCLC = tested on: A549 NSCLC
# SNB-75 CNS = tested on: SNB-75 CNS
# SK-MEL-2 melanoma = tested on: SK-MEL-2 melanoma
# CCRF-CEM leukemia = tested on: CCRF-CEM leukemia
# UACC-257 melanoma = tested on: UACC-257 melanoma
structure (smiles),measurement,setting,value
CCOC(=O)C(C)NC(=O)C(C)NC(=O)C(C)NC(=O)C(C)NC(=O)C(C)NC(=O)C(C)NC(=O)C(C)NC(=O)OCc1ccccc1 (configuration not stated) (Cbz-AAAAAAA-OEt; configuration not given here),TGI,SF-539 CNS,> 100 µM
same,TGI,EKVX NSCLC,> 100 µM
same,TGI,MALME-3M melanoma,> 100 µM
same,TGI,SF-295 CNS,> 100 µM
same,TGI,NCI-H460 lung,> 100 µM
same,TGI,OVCAR-3 ovarian,> 100 µM
same,TGI,CAKI-1 renal,> 100 µM
same,TGI,M14 melanoma,> 100 µM
same,TGI,NCI-H226 lung,> 100 µM
same,TGI,OVCAR-8 ovarian,> 100 µM
same,TGI,HS 578T breast,> 100 µM
same,TGI,MCF7 breast,> 100 µM
same,TGI,UO-31 renal,> 100 µM
same,TGI,HT29 colon,> 100 µM
same,TGI,KM12 colon,> 100 µM
same,TGI,TK-10 renal,> 100 µM
same,TGI,K-562 leukemia,> 100 µM
same,TGI,ACHN renal,> 100 µM
same,TGI,UACC-62 melanoma,> 100 µM
same,TGI,DU-145 prostate,> 100 µM
same,TGI,HL-60(TB) leukemia,> 100 µM
same,TGI,SR leukemia,> 100 µM
same,TGI,SN12C renal,> 100 µM
same,TGI,IGROV1 ovarian,> 100 µM
same,TGI,T-47D breast,> 100 µM
same,TGI,RXF 393 renal,> 100 µM
same,TGI,A498 renal,> 100 µM
same,TGI,SW-620 colon,> 100 µM
same,TGI,HCC-2998 colon,> 100 µM
same,TGI,SK-MEL-28 melanoma,> 100 µM
same,TGI,LOX IMVI melanoma,> 100 µM
same,TGI,SK-OV-3 ovarian,> 100 µM
same,TGI,SF-268 CNS,> 100 µM
same,TGI,HCT-15 colon,> 100 µM
same,TGI,OVCAR-4 ovarian,> 100 µM
same,TGI,NCI-H23 lung,> 100 µM
same,TGI,HOP-62 NSCLC,> 100 µM
same,TGI,HOP-92 NSCLC,> 100 µM
same,TGI,COLO 205 colon,> 100 µM
same,TGI,BT-549 breast,> 100 µM
same,TGI,MOLT-4 leukemia,> 100 µM
same,TGI,MDA-MB-231 breast,> 100 µM
same,TGI,PC-3 prostate,> 100 µM
same,TGI,SK-MEL-5 melanoma,> 100 µM
same,TGI,MDA-N,> 100 µM
same,TGI,RPMI-8226 leukemia,> 100 µM
same,TGI,NCI/ADR-RES ovarian,> 100 µM
same,TGI,OVCAR-5 ovarian,> 100 µM
same,TGI,SNB-19 CNS,> 100 µM
same,TGI,HCT-116 colon,> 100 µM
same,TGI,NCI-H522 lung,> 100 µM
same,TGI,MDA-MB-435,> 100 µM
same,TGI,U251 CNS,> 100 µM
same,TGI,786-0 renal,> 100 µM
same,TGI,A549 NSCLC,> 100 µM
same,TGI,SNB-75 CNS,> 100 µM
Cc1cn(C2CC(N=[N+]=[N-])C(CO[Si](C)(C)C(C)(C)C)O2)c(=O)[nH]c1=O (configuration not stated),TGI,SF-539 CNS,35.6 µM
same,TGI,EKVX NSCLC,58.1 µM
same,TGI,MALME-3M melanoma,28.1 µM
same,TGI,SF-295 CNS,34.6 µM
same,TGI,OVCAR-3 ovarian,34.9 µM
same,TGI,CAKI-1 renal,37.1 µM
same,TGI,M14 melanoma,41.5 µM
same,TGI,NCI-H226 lung,29.6 µM
same,TGI,OVCAR-8 ovarian,37.1 µM
same,TGI,HS 578T breast,40.1 µM
same,TGI,SK-MEL-2 melanoma,33.8 µM
same,TGI,MCF7 breast,58 µM
same,TGI,UO-31 renal,30.7 µM
same,TGI,HT29 colon,32.4 µM
same,TGI,KM12 colon,32.5 µM
same,TGI,TK-10 renal,30.5 µM
same,TGI,K-562 leukemia,47.6 µM
same,TGI,ACHN renal,48 µM
same,TGI,UACC-62 melanoma,29.8 µM
same,TGI,DU-145 prostate,45.1 µM
same,TGI,HL-60(TB) leukemia,72.4 µM
same,TGI,SR leukemia,56.8 µM
same,TGI,SN12C renal,30.4 µM
same,TGI,IGROV1 ovarian,37.3 µM
same,TGI,CCRF-CEM leukemia,60.9 µM
same,TGI,T-47D breast,75.6 µM
same,TGI,RXF 393 renal,32.3 µM
same,TGI,A498 renal,30.7 µM
same,TGI,SW-620 colon,35.7 µM
same,TGI,HCC-2998 colon,26.5 µM
same,TGI,LOX IMVI melanoma,31.5 µM
same,TGI,SK-OV-3 ovarian,37.1 µM
same,TGI,SF-268 CNS,45.8 µM
same,TGI,HCT-15 colon,37.9 µM
same,TGI,OVCAR-4 ovarian,28.1 µM
same,TGI,UACC-257 melanoma,42 µM
same,TGI,NCI-H23 lung,40.2 µM
same,TGI,HOP-62 NSCLC,34.1 µM
same,TGI,COLO 205 colon,35.6 µM
same,TGI,BT-549 breast,23.7 µM
same,TGI,MOLT-4 leukemia,> 100 µM
same,TGI,MDA-MB-231 breast,29.5 µM
same,TGI,PC-3 prostate,38.9 µM
same,TGI,SK-MEL-5 melanoma,32.4 µM
same,TGI,MDA-N,34.2 µM
same,TGI,RPMI-8226 leukemia,47.1 µM
same,TGI,NCI/ADR-RES ovarian,36 µM
same,TGI,OVCAR-5 ovarian,49.1 µM
same,TGI,SNB-19 CNS,38.3 µM
same,TGI,HCT-116 colon,29.6 µM
same,TGI,NCI-H522 lung,35.6 µM
same,TGI,MDA-MB-435,38.2 µM
same,TGI,U251 CNS,33 µM
same,TGI,786-0 renal,29.1 µM
same,TGI,A549 NSCLC,87.8 µM
same,TGI,SNB-75 CNS,42.9 µM
